Here are results for 16 molecules from patent US9210927B2, “Pesticidal compositions and processes related thereto” (Dow AgroSciences LLC, priority 2013, dated 2015).

SMILES strings stand for the structures.

Assay type in all cases: in vivo
One assay has as its system GPA (Myzus persicae). The assay can be described thus: Bioassays on Green Peach Aphid (GPA), foliar spray on cabbage seedlings. The conditions noted are these: 72 h, corrected % control (Abbott), 200 ppm spray on cabbage seedlings, three days, read-out: GPA Rating. The method, then: Bioassays on Green Peach Aphid (“GPA”) (Myzus persicae) Certain molecules disclosed in this document were tested against GPA using procedures described in the following example. In the reporting of the results, the “GPA Rating Table” was used (See Table Section). Cabbage seedlings grown in 3-inch pots, with 2-3 small (3-5 cm) true leaves, were used as test substrate. The seedlings were infested with 20-50 GPA (wingless adult and nymph stages) one day prior to chemical application. Four pots with individual seedlings were used for each treatment. Test compounds (2 mg) were dissolved in 2 mL of acetone/MeOH (1:1) solvent, forming stock solutions of 1000 ppm test compound. The stock solutions were diluted 5× with 0.025% Tween 20 in H2O to obtain the solution at 200 ppm test compound. A hand-held aspirator-type sprayer was used for spraying a solution to both sides of […] leaves until runoff. Reference plants (solvent check) were sprayed with the diluent only containing 20% by volume of acetone/MeOH (1:1) solvent. Treated plants were held in a holding room for three days at approximately 25° C. and ambient relative humidity (RH) prior to grading. Evaluation was conducted by counting the number of live aphids per plant under a microscope. Percent Control was measured by using Abbott's correction formula (W. S. Abbott, “A Method of Computing the Effectiveness of an Insecticide” J. Econ. Entomol. 18 (1925), pp. 265-267) as follows. Corrected % Control=100*(X−Y)/X • where • X=No. of live aphids on solvent check plants and • Y=No. of live aphids on treated plants The results are indicated in the table entitled “Table 3: Assay Results” (See Table Section).

The subject of another assay is CEW (Helicoverpa zea). Briefly: Bioassays on Corn Earworm (CEW), 128-well diet tray assay. The conditions noted are these: Helicoverpa zea, 168 h; percent mortality, second instar larvae, 50 μg/cm^2 on artificial diet, five to seven days, 25° C.; read-out: CEW Rating. An outline of the steps: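 Percent larval mortality, averaged across eight wells, read after five to seven days at 25 °C under 14:10 light-dark. Each well held one to five second-instar larvae on diet surface-dosed at 50 μg/cm^2 (compound applied in acetone-water 90:10, then dried).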

Another assay relates to BAW (Spodoptera exigua). The assay can be described thus: Bioassays on Beet Armyworm (BAW), 128-well diet tray assay. As to conditions: Spodoptera exigua, 168 h, read-out: BAW Rating. In a few lines:
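Diet surface dosed at 50 μg/cm^2 (acetone-water 90:10 vehicle), dried, then infested with second-instar larvae, one to five per well. After five to seven days at 25° C. under 14:10 light-dark, mortality per well was scored and averaged over eight wells.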

For `Cc1cc(/C=C/C(c2cc(Cl)cc(Cl)c2)C(F)(F)F)ccc1C(=O)NCC(F)(F)F` (stereo not shown) [AC6, (E)-4-(3-(3,5-Dichlorophenyl)-4,4,4-trifluorobut-1-enyl)-2-methyl-N-(2,2,2-trifluoroethyl)benzamide], in the assay with GPA (Myzus persicae), the pest or weed control at 200 ppm lay in the range of 0 to 80%. The pest or weed control at 50 µg/cm2 with CEW (Helicoverpa zea) was in the range of 50 to 100%.
As for `Cc1cc(/C=C/C(c2cc(Cl)cc(Cl)c2)C(F)(F)F)ccc1C(=O)NCc1ccc(Cl)nc1` (stereo not shown) [AC7], the pest or weed control at 200 ppm in the assay on GPA (Myzus persicae) was in the range of 0 to 80%. Moreover, the pest or weed control at 50 µg/cm2 with BAW (Spodoptera exigua) and with CEW (Helicoverpa zea) was 50 to 100% in each case.
On to `Cc1cc(/C=C/C(c2cc(Cl)cc(Cl)c2)C(F)(F)F)ccc1C(=O)N1CCCC1=O` (stereo not shown) [AC8], for which the pest or weed control at 200 ppm in the assay on GPA (Myzus persicae) is 0 to 80%. The pest or weed control at 50 µg/cm2 in the assay on CEW (Helicoverpa zea) was in the range of 0 to 50%.
Regarding `Cc1cc(/C=C/C(c2cc(Cl)cc(Cl)c2)C(F)(F)F)ccc1C(=O)NCc1ccccc1F` (stereo not shown) [AC9], in the assay on GPA (Myzus persicae), the pest or weed control at 200 ppm fell in the range of 0 to 80%. The pest or weed control at 50 µg/cm2 with BAW (Spodoptera exigua) and with CEW (Helicoverpa zea) was 50 to 100% each time.
For `Cc1cc(/C=C/C(c2cc(Cl)cc(Cl)c2)C(F)(F)F)ccc1C(=O)NC1CSC1` (stereo not shown) [AC10], the pest or weed control at 200 ppm in the assay with GPA (Myzus persicae) fell in the range of 0 to 80%. Further, the pest or weed control at 50 µg/cm2 with BAW (Spodoptera exigua) and in the assay with CEW (Helicoverpa zea) was 50 to 100% in each case.
On to `Cc1cc(/C=C/C(c2cc(Cl)cc(Cl)c2)C(F)(F)F)ccc1C(=O)NC1CS(=O)(=O)C1` (stereo not shown) [AC13], for which the pest or weed control at 200 ppm with GPA (Myzus persicae) lay within 0 to 80%. Further, the pest or weed control at 50 µg/cm2 with BAW (Spodoptera exigua) and with CEW (Helicoverpa zea) was 50 to 100% in each case.
With `Cc1cc(/C=C/C(c2cc(Cl)cc(Cl)c2)C(F)(F)F)ccc1C(=O)NCc1cnc(Cl)s1` (stereo not shown) [AC15], the pest or weed control at 200 ppm in the assay on GPA (Myzus persicae) lay in the range of 0 to 80%. In addition, the pest or weed control at 50 µg/cm2 in the assay with BAW (Spodoptera exigua) and in the assay with CEW (Helicoverpa zea) was 50 to 100% each time.
Consider `Cc1cc(/C=C/C(c2cc(Cl)cc(Cl)c2)C(F)(F)F)ccc1C(=O)NNc1ccccc1F` (stereo not shown) [AC17], for which the pest or weed control at 200 ppm in the assay with GPA (Myzus persicae) is 0 to 80%. Also, the pest or weed control at 50 µg/cm2 in the assay on BAW (Spodoptera exigua) and in the assay on CEW (Helicoverpa zea) was 50 to 100% each time.
For `Cc1cc(/C=C/C(c2cc(Cl)cc(Cl)c2)C(F)(F)F)ccc1C(=O)NCc1ncccn1` (stereo not shown) [AC18], the pest or weed control at 200 ppm in the assay with GPA (Myzus persicae) lay in the range of 0 to 80%. The pest or weed control at 50 µg/cm2 with BAW (Spodoptera exigua) and in the assay on CEW (Helicoverpa zea) was 50 to 100% in each case.
On to `Cc1cc(/C=C/C(c2cc(Cl)c(Cl)c(Cl)c2)C(F)(F)F)ccc1C(=O)NC1CSC1` (stereo not shown) [AC23], for which, in the assay on GPA (Myzus persicae), the pest or weed control at 200 ppm fell in the range of 0 to 80%. For the same molecule, the pest or weed control at 50 µg/cm2 in the assay with BAW (Spodoptera exigua) and in the assay on CEW (Helicoverpa zea) was 50 to 100% each time.
As for `Cc1cc(/C=C/C(c2cc(Cl)c(Cl)c(Cl)c2)C(F)(F)F)ccc1C(=O)NCc1cnc(Cl)s1` (stereo not shown) [AC26], in the assay with GPA (Myzus persicae), the pest or weed control at 200 ppm fell in the range of 0 to 80%. Further, the pest or weed control at 50 µg/cm2 with BAW (Spodoptera exigua) and in the assay on CEW (Helicoverpa zea) was 50 to 100% in each case.
Turning to `Cc1cc(/C=C/C(c2cc(Cl)c(Cl)c(Cl)c2)C(F)(F)F)ccc1C(=O)NC(C)(C)c1ccccn1` (stereo not shown) [AC27], in the assay with GPA (Myzus persicae), the pest or weed control at 200 ppm lay in the range of 0 to 80%. Also, the pest or weed control at 50 µg/cm2 in the assay on BAW (Spodoptera exigua) and with CEW (Helicoverpa zea) was 50 to 100% each time.
Turning to `O=C(NCc1ccc(Cl)nc1)c1ccc(/C=C/C(c2cc(Cl)c(Cl)c(Cl)c2)C(F)(F)F)cc1Cl` (stereo not shown) [AC28], the pest or weed control at 200 ppm in the assay with GPA (Myzus persicae) lay within 0 to 80%. In addition, the pest or weed control at 50 µg/cm2 with BAW (Spodoptera exigua) and in the assay on CEW (Helicoverpa zea) was 50 to 100% in each case.
Regarding `O=C(NC1CSC1)c1ccc(/C=C/C(c2cc(Cl)c(Cl)c(Cl)c2)C(F)(F)F)cc1Cl` (stereo not shown) [AC29], the pest or weed control at 200 ppm with GPA (Myzus persicae) fell in the range of 0 to 80%. In addition, the pest or weed control at 50 µg/cm2 with BAW (Spodoptera exigua) and in the assay on CEW (Helicoverpa zea) was 50 to 100% throughout.
`O=C(NC1CS(=O)(=O)C1)c1ccc(/C=C/C(c2cc(Cl)c(Cl)c(Cl)c2)C(F)(F)F)cc1Cl` (stereo not shown) [AC30]: in the assay with GPA (Myzus persicae), the pest or weed control at 200 ppm lay within 0 to 80%. Further, the pest or weed control at 50 µg/cm2 in the assay on BAW (Spodoptera exigua) and with CEW (Helicoverpa zea) was 50 to 100% throughout.
As for `O=C(NCc1ccc(Cl)nc1)c1ccc(/C=C/C(c2cc(Cl)c(Cl)c(Cl)c2)C(F)(F)F)cc1Br` (stereo not shown) [AC31], in the assay on GPA (Myzus persicae), the pest or weed control at 200 ppm lay within 0 to 80%. Also, the pest or weed control at 50 µg/cm2 in the assay on BAW (Spodoptera exigua) and in the assay on CEW (Helicoverpa zea) was 50 to 100% throughout.
